{"source": "patent US12465582B2", "about": "“(S)-2-amino-6-((3-aminopropyl)amino)hexanoic acid (APL) for use in the treatment of non-alcoholic steatohepatitis (NASH), liver inflammation, hepatocellular ballooning, liver fibrosis and steatosis” (Temple University—Of The Commonwealth System Of Higher …, priority 2020, dated 2025)", "key": {"[1]": {"system": "4-hydroxynonenal (4-HNE) in liver of Zucker (fa/fa) obese rats", "experiment": "Hepatic 4-HNE immunofluorescence (protein carbonyls) in rat NASH model", "format": "in vivo", "excerpt": "Zucker (fa/fa) obese rats and Zucker (Fa/fa) lean rats (7-week old male animals obtained from Charles Rivers Laboratories, Wilmington, MA, USA) were maintained in individual cages (1 rat per cage to encourage sedentary activity) and had free access to standard rodent chow (Cat #5053 obtained from Labdiet, Saint Louis, MO) and water for (filtered and packed using a Hydrapak system) for 7 days until the start of the experiment. Zucker (fa/fa) obese rats were randomly assigned to two groups: 1) vehicle p.o.b.i.d. (oral administration, twice a day) for 78 days; and 2) 100 milligram per kilogram (mg/kg) body weight APL (p.o.b.i.d.) for 78 days. Zucker (Fa/fa) lean rats served as control. The APL dosage was 100 mg/kg/day. Animals were fed ad libitum. The animals were humanely euthanized, and the livers were removed for histological analysis. Liver samples in formalin were allowed to fix for 48 hours, and processed into FFPE blocks after fixations. Slides were stained with hematoxylin and eosin (H&E) and Mason trichrome staining.\nLiver samples from the Zucker rats in Example 4 were stained with an anti-4HNE antibody from Abcam (catalog #ab46545) for immunofluorescent analysis of the presence of 4-HNE. The data are depicted in FIG. 9. FIG. 9A are representative images of 4-HNE immunofluorescence liver sections from Zucker (Fa/fa) lean rats, Zucker (fa/fa) obese rats administered vehicle, and Zucker (fa/fa) obese rats administered vehicle administered APL. FIG. 9B is a plot of the 4HNE immunofluorescence intensity per tissue area, and FIG. 9C is a plot of total tissue area. […] Cytotoxic lipid by products such as 4-HNE are known to be elevated in human NASH livers as compared to healthy livers. See e.g., Serviddio et al., Uncoupling protein-2 (UCP2) induces mitochondrial proton leak and increases susceptibility of non-alcoholic steatohepatitis (NASH) liver to ischaemia-reperfusion injury. Gut. 2008 July; 57(7):957-65. doi: 10.1136/gut.2007.147496. Epub 2008 Feb. 28. The data implies that 4-HNE plays a crucial role in the pathogenesis of NASH."}, "[2]": {"system": "C57BL/6J mice fed high fat/high fructose diet (HFD)", "experiment": "NAFLD Activity Score (NAS) in HFD DIO mouse model of NASH", "format": "in vivo", "settings": "130 days", "method": "C57BL/6J mice were maintained in cages (5 mice per cage) and had free access to standard rodent chow (Cat #5053, obtained from Labdiet, Saint Louis, MO) and water (filtered and packed using a Hydrapak system) for 5 days until the start of the experiment. The animals were then randomly assigned to three groups (n=5 for each group receiving different diets and treatments as shown in Table B for 130 days. Each treatment was administered p.o.b.i.d. The APL dosage was 200 mg/kg body weight. “HFD” is high fat/high fructose diet, as described in Example 1 “Chow” refers to standard rodent chow, as described in Example 1. Animals were fed ad libitum.\nAt the conclusion of the test period, the animals were humanely euthanized, and the livers were removed for histological analysis. Liver samples in formalin were allowed to fix for 48 hours, and processed into FFPE blocks after fixations. Slides were stained with hematoxylin and eosin (H&E). FIG. 6A is the representation of multiple images of hematoxylin & eosin (H&E) staining of liver sections.\nThe liver samples were evaluated for liver fat (steatosis), inflammation, and hypertrophy in accordance the NAS scoring system. The NAS scoring is depicted in FIG. 6B. The NAS score for mice in the HFD/vehicle-treated mice is increased in all the pathological parameters, when compared with the CHOW/vehicle-treated mice: macrovesicular steatosis, microvesicular steatosis, hepatic hypertrophy and inflammatory foci. […] Thus, APL attenuates hepatic steatosis, inflammation and hypertrophy in the liver, each pathognomic of liver damage and NASH."}, "[3]": {"system": "4-hydroxynonenal (4-HNE) in liver of C57BL/6J mice fed HFD", "experiment": "Hepatic 4-HNE immunofluorescence (protein carbonyls) in DIO mouse NASH model", "format": "in vivo", "settings": "130 days", "method": "Liver samples from C57BL/6J mice fed chow and treated with vehicle, C57BL/6J mice fed HFD and treated with vehicle, and C57BL/6J mice fed HFD and treated with APL, as described in Example 1, were prepared and stained with an anti-4HNE antibody from Abcam (catalog #ab46545) for immunofluorescent analysis of the presence of 4-HNE. The APL dosage, administration frequency, and duration of treatment were as described in Example 1 (APL dosage administered to each animal was 200 milligrams per kilogram of body weight divided in two dosages per day, via oral gavage; treatment duration of 130 days; animals fed ad libitum). The data are depicted in FIG. 10. FIG. 10A are representative images of 4-HNE immunofluorescence liver sections from C57BL/6J mice fed chow and treated with vehicle, C57BL/6J mice fed HFD and treated with either vehicle or APL (TB-019) at 20× or 63× magnification. FIG. 10B is a plot of the 4-HNE immunofluorescence intensity per tissue area."}, "[4]": {"settings": "See WO 2018/049019 and US 2019/0192462; cited from earlier work"}, "[5]": {"settings": "Zucker obese rats, 100 mg/kg APL p.o. b.i.d., 78 days, ***p<0.001"}}, "data": [{"molecule": "NCCCNCCCC[C@H](N)C(=O)O", "note": "[APL, (S)-2-amino-6-((3-aminopropyl)amino)hexanoic acid]", "values": [{"measurement": "hepatic 4-HNE intensity / total tissue area, treated vs negative control", "setting": "[1]; Zucker obese rats treated with APL vs lean control", "value": "No significant statistical difference"}, {"measurement": "hepatic 4-HNE immunofluorescence intensity per tissue area, treated vs obese vehicle", "setting": "[1]; [5]", "value": "significantly reduces"}, {"measurement": "total liver tissue area (FIG. 9C), treated vs obese vehicle", "setting": "[1]; [5]", "value": "maintains the total liver tissue area"}, {"measurement": "NAS parameters: macrovesicular steatosis, microvesicular steatosis, hepatic hypertrophy, inflammatory foci (FIG. 6B)", "setting": "[2]; APL 200 mg/kg p.o. b.i.d., vs HFD vehicle, ***p<0.001", "value": "statistically significant amelioration"}, {"measurement": "lobular inflammation score, treated group vs negative control (FIG. 7B)", "setting": "[2]; APL 200 mg/kg, ****p<0.0001", "value": "significant statistical difference"}, {"measurement": "NAS component scores: steatosis, lobular inflammation, hepatic ballooning (FIG. 7B), treated vs positive control", "setting": "[2]; APL 200 mg/kg/day divided into 2 doses, ****p<0.0001", "value": "significantly reduces"}, {"measurement": "protein carbonyls in liver (4-HNE immunofluorescence intensity per tissue area), treated vs HFD vehicle", "setting": "[3]; APL 200 mg/kg/day in two doses, oral gavage, ***p<0.001", "value": "reduced"}, {"measurement": "4-HNE immunofluorescence intensity per tissue area, treated vs negative control (chow vehicle)", "setting": "[3]; APL 200 mg/kg/day", "value": "No statistical difference"}, {"measurement": "affinity for 4-HNE", "setting": "[4]", "value": "high affinity"}]}]}
